Among the data in patent US7423053B2, “4-Aminothiazole derivatives” (Hoffmann-La Roche Inc., priority 2004, dated 2008) are Ki values, retold here.

For orientation: Ki means a measure of affinity in units of concentration, obtained from inhibition or displacement.

Holding throughout (format): biochemical
Holding throughout (settings): Rb substrate, ATP at 3x Km, Ki=IC50/(1+S/Km)

Assay [1] concerns the target human cyclin B-CDK1 (Homo sapiens, UniProt P06493). As to the kind of experiment: CDK1 HTRF kinase assay (Ki measurement). On the procedure: (§1) This experiment was conducted using recombinant human cyclin B-CDK1, human cyclin E-CDK2 or human cyclin D1-CDK4 complexes. GST-cyclinE (GST-cycE), CDK2, GST-cyclinB (GST-cycB), CDK1, GST-CDK4 and cyclin D1 (cycD1) cDNA clones in baculovirus vectors were provided by Dr. W. Harper at the Baylor College of Medicine, Houston, Tex. Proteins were co-expressed in High Five™ insect cells and the complex was purified on glutathione Sepharose resin (Pharmacia, Piscataway, N.J.) as previously described (Harper, J. W. et al. Cell 1993, 75, 805-816). […]
(§2) The expression of the 62 Kd protein was under the control of an IPTG inducible promoter in an M15 E. coli strain. […] Purified Rb fusion protein stocks were quantitated for protein concentration, aliquoted, and stored at −70° C.
(§3) Using the protein constructs described above, CDK1, CDK2, and CDK4 HTRF assays were set up. These were done in 96-well format and read in 384-well plate format. […]
(§4) In the CDK4 assay, test compounds were diluted to 3× ntheir final concentrations in 25 mM Hepes, pH 7.0, 6.25 mM MgCl2, 1.5 mM DTT, 135 μM ATP. […] The plates were read using either ViewLux or Victor V readers (PerkinElmer Life Sciences) using an excitation wavelength of 340 nm and dual emission wavelengths of 615 nm and 665 nm. […]

Assay [2] deals with human cyclin E-CDK2 (Homo sapiens, UniProt P24941). As to the kind of experiment: CDK2 HTRF kinase assay (Ki measurement). On the procedure:
as §1, §2, §3, §4
(In general: In TR-FRET formats the signal depends on donor and acceptor labels being close together.)

The target of assay [3] is human cyclin D1-CDK4 (Homo sapiens, UniProt P11802). As to the kind of experiment: CDK4 HTRF kinase assay (Ki measurement). The procedure: as §1, §2, §3, §4
Sequence of human cyclin D1-CDK4 (P11802 whole entry): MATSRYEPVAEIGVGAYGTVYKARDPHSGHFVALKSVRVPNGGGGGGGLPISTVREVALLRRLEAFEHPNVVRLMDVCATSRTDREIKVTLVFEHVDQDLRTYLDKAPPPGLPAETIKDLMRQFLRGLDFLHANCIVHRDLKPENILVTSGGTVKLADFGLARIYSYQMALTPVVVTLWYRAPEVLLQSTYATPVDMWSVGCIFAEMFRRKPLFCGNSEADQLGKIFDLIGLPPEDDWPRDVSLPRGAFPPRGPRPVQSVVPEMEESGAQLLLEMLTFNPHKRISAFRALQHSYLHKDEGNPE
Sequence of human cyclin D1-CDK4 (P24385 whole entry partner): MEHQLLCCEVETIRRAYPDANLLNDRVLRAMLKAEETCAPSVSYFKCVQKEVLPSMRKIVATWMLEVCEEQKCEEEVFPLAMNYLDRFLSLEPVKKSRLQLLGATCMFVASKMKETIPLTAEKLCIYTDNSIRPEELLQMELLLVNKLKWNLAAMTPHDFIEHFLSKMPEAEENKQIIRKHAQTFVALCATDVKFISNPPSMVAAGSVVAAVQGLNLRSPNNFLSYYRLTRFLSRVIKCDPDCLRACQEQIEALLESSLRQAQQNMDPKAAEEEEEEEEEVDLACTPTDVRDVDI

Sequence of human cyclin B-CDK1 (P06493 whole entry, the tested form may be a part): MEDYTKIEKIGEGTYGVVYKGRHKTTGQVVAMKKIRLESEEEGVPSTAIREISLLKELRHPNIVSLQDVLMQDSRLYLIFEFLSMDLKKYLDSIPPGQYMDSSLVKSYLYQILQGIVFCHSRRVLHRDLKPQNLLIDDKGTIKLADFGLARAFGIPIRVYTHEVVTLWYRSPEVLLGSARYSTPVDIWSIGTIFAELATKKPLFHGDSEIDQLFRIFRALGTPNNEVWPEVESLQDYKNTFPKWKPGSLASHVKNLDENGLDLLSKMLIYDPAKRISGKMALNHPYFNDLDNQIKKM
Sequence of human cyclin B-CDK1 (P14635 whole entry partner, the tested form may be a part): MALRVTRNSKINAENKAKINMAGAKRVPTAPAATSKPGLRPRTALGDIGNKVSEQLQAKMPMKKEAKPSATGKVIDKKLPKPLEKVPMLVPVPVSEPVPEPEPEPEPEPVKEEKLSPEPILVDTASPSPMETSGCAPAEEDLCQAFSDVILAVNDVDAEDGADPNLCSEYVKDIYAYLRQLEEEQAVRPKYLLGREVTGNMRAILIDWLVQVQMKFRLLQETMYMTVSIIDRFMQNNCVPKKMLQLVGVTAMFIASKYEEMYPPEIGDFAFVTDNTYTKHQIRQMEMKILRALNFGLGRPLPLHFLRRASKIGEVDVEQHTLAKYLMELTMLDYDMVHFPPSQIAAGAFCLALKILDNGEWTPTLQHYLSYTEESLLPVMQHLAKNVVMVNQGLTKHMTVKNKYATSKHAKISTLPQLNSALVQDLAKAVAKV

Take `COc1ccc(F)c(F)c1C(=O)c1sc(NC2CCN(S(C)(=O)=O)CC2)nc1N` [Example 14, [4-Amino-2-(1-methanesulfonylpiperidin-4-ylamino)thiazol-5-yl]-(2,3-difluoro-6-methoxyphenyl)methanone]: the values for the Ki in assay [1], in assay [2] and in assay [3] were 1 nM, 1 nM and 2 nM, respectively.
For `CS(=O)(=O)N1CCC(Nc2nc(N)c(C(=O)c3c(F)cccc3F)s2)CC1` [Example 17, [4-Amino-2-(1-methanesulfonyl-piperidin-4-ylamino)thiazol-5-yl]-(2,6-difluorophenyl)methanone], the inhibitory constant (Ki) turned out to be 3 nM in assay [1], 5 nM in assay [2] and 6 nM in assay [3].
